# Assay results as given in US11414379B2, “SPAK kinase inhibitors as neuroprotective agents” (United States Government as represented by the Department …, priority 2018, dated 2022).
# Tests used:
# Test in all cases: Kinase panel (Dundee profiling)
# Format in all cases: biochemical
# Details in all cases: read-out: % residual kinase activity
# BRK = BRK (Homo sapiens, UniProt Q13882)
# Description: (§1) The kinase selectivity of ZT-1a was further assessed using standard radioisotopic enzymatic assays against a panel of 140 recombinant kinases (Dundee profiling, Table 2) (Bain et al. (2007) The Biochemical journal 408, 297-315). ZT-1a at a concentration of 10 μM inhibited only MAPKAP-K2 activity 85±7% compared to DMSO control, representing high kinase selectivity.
# (§2) Referring to Table 2, ZT-1a was tested at 10 and 1 μM against a panel of 140 recombinant kinases in an enzymatic activity-based assay performed by the International Centre for Kinase Profiling in the MRC Protein Phosphorylation and Ubiquitylation Unit. Values represent % residual kinase activity (mean+/−SEM, n=3). Kinases labelled with an asterick* are inhibited ≥50% by ZT-1a.
# CAMK1 = CAMK1 (Homo sapiens, UniProt Q14012)
# Description: as §1, §2
# CK2 = CK2 (Homo sapiens, UniProt P68400)
# Description: as §1, §2
# CLK2 = CLK2 (Homo sapiens, UniProt P49760)
# Description: as §1, §2
# DYRK2 = DYRK2 (Homo sapiens, UniProt Q92630)
# DYRK2, sequence (Q92630 whole entry, species assumed): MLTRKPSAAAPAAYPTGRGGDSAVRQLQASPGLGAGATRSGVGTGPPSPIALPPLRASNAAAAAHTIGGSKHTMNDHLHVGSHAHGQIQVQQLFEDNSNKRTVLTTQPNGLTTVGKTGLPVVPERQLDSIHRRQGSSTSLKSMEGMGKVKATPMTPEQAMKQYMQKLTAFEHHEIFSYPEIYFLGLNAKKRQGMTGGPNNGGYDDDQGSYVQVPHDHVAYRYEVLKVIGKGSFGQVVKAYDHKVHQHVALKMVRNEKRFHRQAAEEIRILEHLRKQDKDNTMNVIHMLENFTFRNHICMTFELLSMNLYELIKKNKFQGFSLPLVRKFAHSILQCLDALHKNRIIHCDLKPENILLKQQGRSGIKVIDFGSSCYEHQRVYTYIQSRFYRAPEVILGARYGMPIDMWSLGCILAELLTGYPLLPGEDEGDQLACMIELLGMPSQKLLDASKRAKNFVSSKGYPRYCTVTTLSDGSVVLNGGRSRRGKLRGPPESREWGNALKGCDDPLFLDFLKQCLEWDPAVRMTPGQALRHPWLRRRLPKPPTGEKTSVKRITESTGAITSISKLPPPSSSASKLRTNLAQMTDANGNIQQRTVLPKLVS
# Description: as §1, §2
# EPH-A4 = EPH-A4 (Homo sapiens, UniProt P54764)
# Description: as §1, §2
# HER4 = HER4 (Homo sapiens, UniProt Q15303)
# Description: as §1, §2
# IR = IR (Homo sapiens, UniProt P06213)
# Description: as §1, §2
# JNK1 = JNK1 (Homo sapiens, UniProt P45983)
# Description: as §1, §2
# MARK3 = MARK3 (Homo sapiens, UniProt P27448)
# Description: as §1, §2
# MEKK1 = MEKK1 (Homo sapiens, UniProt Q13233)
# Description: as §1, §2
# MKK2 = MKK2 (Homo sapiens, UniProt P36507)
# Description: as §1, §2
# MLK3 = MLK3 (Homo sapiens, UniProt Q16584)
# Description: as §1, §2
# MNK1 = MNK1 (Homo sapiens, UniProt Q9BUB5)
# MNK1, sequence (Q9BUB5 whole entry, species assumed): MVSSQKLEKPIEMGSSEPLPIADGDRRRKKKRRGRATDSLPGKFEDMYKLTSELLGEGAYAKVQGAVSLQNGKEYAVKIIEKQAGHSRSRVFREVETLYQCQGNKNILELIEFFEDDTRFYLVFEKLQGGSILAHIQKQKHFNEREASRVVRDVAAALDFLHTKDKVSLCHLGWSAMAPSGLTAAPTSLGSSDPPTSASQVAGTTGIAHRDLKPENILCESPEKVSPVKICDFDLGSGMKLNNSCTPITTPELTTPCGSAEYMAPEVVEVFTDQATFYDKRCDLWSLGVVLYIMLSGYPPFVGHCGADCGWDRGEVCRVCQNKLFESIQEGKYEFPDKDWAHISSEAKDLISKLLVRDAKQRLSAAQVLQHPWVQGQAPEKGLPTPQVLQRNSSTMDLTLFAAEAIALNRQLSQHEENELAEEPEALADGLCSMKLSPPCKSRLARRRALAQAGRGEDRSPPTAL
# Description: as §1, §2
# MST2 = MST2 (Homo sapiens, UniProt Q13188)
# MST2, sequence (Q13188 whole entry, species assumed): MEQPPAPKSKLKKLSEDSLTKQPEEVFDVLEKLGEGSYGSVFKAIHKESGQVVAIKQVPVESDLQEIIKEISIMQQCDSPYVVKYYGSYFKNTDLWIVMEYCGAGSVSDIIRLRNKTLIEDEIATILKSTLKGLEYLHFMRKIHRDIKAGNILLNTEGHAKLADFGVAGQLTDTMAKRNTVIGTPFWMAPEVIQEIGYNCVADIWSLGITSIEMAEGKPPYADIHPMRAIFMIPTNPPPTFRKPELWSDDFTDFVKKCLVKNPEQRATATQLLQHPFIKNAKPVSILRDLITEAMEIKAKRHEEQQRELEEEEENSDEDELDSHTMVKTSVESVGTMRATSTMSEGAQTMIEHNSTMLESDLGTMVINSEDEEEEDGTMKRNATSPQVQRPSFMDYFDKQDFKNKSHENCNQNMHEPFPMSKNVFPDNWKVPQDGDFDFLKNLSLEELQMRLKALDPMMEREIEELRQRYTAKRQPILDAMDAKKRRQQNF
# Description: as §1, §2
# MST3 = MST3 (Homo sapiens, UniProt Q9Y6E0)
# Description: as §1, §2
# NUAK1 = NUAK1 (Homo sapiens, UniProt O60285)
# Description: as §1, §2
# PAK5 = PAK5 (Homo sapiens, UniProt Q9P286)
# PAK5, sequence (Q9P286 whole entry): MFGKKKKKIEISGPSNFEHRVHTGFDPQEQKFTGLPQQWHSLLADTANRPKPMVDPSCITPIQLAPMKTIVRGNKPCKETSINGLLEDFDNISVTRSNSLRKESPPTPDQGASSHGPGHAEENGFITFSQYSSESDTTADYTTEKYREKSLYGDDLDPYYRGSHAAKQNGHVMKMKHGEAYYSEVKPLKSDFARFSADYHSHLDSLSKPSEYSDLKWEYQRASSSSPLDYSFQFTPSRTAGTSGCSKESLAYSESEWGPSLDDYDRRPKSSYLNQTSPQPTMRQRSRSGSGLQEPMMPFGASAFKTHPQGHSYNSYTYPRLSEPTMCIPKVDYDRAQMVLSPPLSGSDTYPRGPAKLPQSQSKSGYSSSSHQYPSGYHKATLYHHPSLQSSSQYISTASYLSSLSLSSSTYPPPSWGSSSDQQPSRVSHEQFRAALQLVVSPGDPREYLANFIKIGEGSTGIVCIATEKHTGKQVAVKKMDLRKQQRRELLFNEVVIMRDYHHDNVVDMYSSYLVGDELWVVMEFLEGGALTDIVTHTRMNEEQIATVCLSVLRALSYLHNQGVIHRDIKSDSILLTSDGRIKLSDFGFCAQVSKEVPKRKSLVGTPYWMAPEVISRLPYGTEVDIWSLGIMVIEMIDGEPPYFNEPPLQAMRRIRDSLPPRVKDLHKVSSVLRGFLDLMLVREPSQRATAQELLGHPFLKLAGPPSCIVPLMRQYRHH
# Description: as §1, §2
# PAK6 = PAK6 (Homo sapiens, UniProt Q9NQU5)
# Description: as §1, §2
# PDK1 = PDK1 (Homo sapiens, UniProt O15530)
# Description: as §1, §2
# PKBb = PKBb (Homo sapiens, UniProt P31751)
# PKBb, sequence (P31751 whole entry): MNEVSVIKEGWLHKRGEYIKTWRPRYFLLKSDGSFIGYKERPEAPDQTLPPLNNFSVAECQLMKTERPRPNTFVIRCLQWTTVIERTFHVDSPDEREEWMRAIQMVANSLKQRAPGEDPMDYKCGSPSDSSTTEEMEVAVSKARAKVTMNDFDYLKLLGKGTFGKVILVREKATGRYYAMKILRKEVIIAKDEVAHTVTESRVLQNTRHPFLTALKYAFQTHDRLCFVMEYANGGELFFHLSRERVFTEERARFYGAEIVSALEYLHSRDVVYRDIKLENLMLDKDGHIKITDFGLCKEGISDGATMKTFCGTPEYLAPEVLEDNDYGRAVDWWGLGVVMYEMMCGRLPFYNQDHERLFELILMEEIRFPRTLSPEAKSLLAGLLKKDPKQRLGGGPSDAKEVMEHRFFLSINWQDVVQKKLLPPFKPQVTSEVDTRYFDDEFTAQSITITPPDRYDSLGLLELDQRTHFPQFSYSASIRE
# Description: as §1, §2
# PKD1 = PKD1 (Homo sapiens, UniProt Q15139)
# Description: as §1, §2
# RIPK2 = RIPK2 (Homo sapiens, UniProt O43353)
# Description: as §1, §2
# SRPK1 = SRPK1 (Homo sapiens, UniProt Q96SB4)
# Description: as §1, §2
# SmMLCK = SmMLCK (Homo sapiens, UniProt Q15746)
# Description: as §1, §2
# TBK1 = TBK1 (Homo sapiens, UniProt Q9UHD2)
# Description: as §1, §2
# TIE2 = TIE2 (Homo sapiens, UniProt Q02763)
# Description: as §1, §2
# TSSK1 = TSSK1 (Homo sapiens, UniProt Q9BXA7)
# TSSK1, sequence (Q9BXA7 whole entry, species assumed): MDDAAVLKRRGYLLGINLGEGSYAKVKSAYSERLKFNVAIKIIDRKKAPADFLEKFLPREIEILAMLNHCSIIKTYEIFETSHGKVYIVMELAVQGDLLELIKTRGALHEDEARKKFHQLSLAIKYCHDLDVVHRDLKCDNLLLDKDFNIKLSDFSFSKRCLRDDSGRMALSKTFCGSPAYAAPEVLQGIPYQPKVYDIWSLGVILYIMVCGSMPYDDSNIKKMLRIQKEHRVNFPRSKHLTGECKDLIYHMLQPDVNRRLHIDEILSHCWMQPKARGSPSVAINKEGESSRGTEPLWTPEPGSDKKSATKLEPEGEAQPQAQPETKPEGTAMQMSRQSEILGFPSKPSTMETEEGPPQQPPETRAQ
# Description: as §1, §2
# ULK1 = ULK1 (Homo sapiens, UniProt O75385)
# ULK1, sequence (O75385 whole entry, species assumed): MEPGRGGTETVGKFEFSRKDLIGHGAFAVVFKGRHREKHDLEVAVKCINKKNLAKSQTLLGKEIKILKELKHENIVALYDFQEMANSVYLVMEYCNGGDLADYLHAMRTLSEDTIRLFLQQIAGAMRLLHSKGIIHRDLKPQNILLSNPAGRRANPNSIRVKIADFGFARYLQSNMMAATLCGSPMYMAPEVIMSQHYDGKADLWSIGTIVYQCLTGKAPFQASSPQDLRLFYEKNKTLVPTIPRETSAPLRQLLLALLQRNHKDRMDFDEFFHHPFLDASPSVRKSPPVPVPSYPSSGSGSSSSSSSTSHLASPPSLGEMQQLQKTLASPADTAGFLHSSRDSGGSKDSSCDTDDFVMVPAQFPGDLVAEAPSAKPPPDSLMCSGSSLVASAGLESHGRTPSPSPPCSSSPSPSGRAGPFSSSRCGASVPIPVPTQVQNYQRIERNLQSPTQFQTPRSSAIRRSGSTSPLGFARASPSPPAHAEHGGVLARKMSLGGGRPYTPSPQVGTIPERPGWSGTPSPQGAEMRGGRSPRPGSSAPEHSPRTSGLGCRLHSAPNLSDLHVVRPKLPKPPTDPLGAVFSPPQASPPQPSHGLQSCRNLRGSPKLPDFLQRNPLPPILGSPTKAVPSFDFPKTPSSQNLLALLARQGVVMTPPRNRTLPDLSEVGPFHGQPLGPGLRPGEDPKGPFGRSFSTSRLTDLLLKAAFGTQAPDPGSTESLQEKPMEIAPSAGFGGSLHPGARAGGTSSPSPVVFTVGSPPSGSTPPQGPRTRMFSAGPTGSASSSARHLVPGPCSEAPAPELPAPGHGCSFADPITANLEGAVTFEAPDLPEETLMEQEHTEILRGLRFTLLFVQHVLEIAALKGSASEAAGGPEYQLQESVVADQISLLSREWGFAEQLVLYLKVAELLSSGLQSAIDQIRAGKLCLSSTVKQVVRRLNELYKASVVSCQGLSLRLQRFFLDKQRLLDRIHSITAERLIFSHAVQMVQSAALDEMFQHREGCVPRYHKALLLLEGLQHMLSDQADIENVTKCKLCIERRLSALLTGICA
# Description: as §1, §2
# ULK2 = ULK2 (Homo sapiens, UniProt Q8IYT8)
# Description: as §1, §2
# p38a MAPK = p38a MAPK (Homo sapiens, UniProt Q16539)
# p38a MAPK, sequence (Q16539 whole entry): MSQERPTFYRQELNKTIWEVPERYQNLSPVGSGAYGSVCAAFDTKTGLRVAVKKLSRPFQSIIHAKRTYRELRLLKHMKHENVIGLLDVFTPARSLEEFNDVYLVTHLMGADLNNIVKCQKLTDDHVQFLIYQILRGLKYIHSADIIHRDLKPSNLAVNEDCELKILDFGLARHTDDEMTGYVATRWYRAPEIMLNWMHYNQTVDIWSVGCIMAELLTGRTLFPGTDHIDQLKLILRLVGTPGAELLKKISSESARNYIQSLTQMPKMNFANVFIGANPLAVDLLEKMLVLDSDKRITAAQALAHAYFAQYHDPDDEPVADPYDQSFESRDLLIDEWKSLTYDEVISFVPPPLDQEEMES
# Description: as §1, §2
# p38b MAPK = p38b MAPK (Homo sapiens, UniProt Q15759)
# p38b MAPK, sequence (Q15759 whole entry): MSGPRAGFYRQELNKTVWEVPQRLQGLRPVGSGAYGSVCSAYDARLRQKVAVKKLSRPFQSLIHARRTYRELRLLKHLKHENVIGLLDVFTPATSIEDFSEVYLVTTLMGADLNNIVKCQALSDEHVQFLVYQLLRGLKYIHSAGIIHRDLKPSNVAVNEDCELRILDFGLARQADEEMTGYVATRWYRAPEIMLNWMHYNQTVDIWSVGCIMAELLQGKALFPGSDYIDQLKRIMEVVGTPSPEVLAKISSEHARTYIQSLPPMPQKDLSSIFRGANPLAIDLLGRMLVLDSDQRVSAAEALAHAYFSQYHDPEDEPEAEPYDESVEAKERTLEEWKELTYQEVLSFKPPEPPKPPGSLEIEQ
# Description: as §1, §2
compound,measurement,setting,value
"Cc1cc(C(C#N)c2ccc(Cl)cc2)c(Cl)cc1NC(=O)c1cc(Cl)ccc1O (stereo not shown) [ZT-1a, 5-chloro-N-(5-chloro-4-((4-chlorophenyl)(cyano)methyl)-2-methylphenyl)-2-hydroxy-benzamide]",remaining activity at 1 µM,BRK; 1 μM,116 ± 12%
same,remaining activity at 10 µM,BRK; 10 μM,103 ± 2%
same,remaining activity at 1 µM,CAMK1; 1 μM,60 ± 5%
same,remaining activity at 10 µM,CAMK1; 10 μM,71 ± 31%
same,remaining activity at 1 µM,CK2; 1 μM,72 ± 15%
same,remaining activity at 10 µM,CK2; 10 μM,59 ± 16%
same,remaining activity at 1 µM,CLK2; 1 μM,68 ± 12%
same,remaining activity at 10 µM,CLK2; 10 μM,33 ± 45%
same,remaining activity at 1 µM,DYRK2; 1 μM,111 ± 15%
same,remaining activity at 10 µM,DYRK2; 10 μM,97 ± 10%
same,remaining activity at 1 µM,EPH-A4; 1 μM,59 ± 33%
same,remaining activity at 10 µM,EPH-A4; 10 μM,90 ± 11%
same,remaining activity at 1 µM,HER4; 1 μM,85 ± 8%
same,remaining activity at 10 µM,HER4; 10 μM,84 ± 1%
same,remaining activity at 1 µM,IR; 1 μM,105 ± 2%
same,remaining activity at 10 µM,IR; 10 μM,86 ± 13%
same,remaining activity at 1 µM,JNK1; 1 μM,106 ± 4%
same,remaining activity at 10 µM,JNK1; 10 μM,110 ± 5%
same,remaining activity at 1 µM,MARK3; 1 μM,71 ± 6%
same,remaining activity at 10 µM,MARK3; 10 μM,68 ± 8%
same,remaining activity at 1 µM,MEKK1; 1 μM,109 ± 1%
same,remaining activity at 10 µM,MEKK1; 10 μM,93 ± 16%
same,remaining activity at 1 µM,MKK2; 1 μM,126 ± 2%
same,remaining activity at 10 µM,MKK2; 10 μM,81 ± 27%
same,remaining activity at 1 µM,MLK3; 1 μM,119 ± 11%
same,remaining activity at 10 µM,MLK3; 10 μM,114 ± 3%
same,remaining activity at 1 µM,MNK1; 1 μM,78 ± 19%
same,remaining activity at 10 µM,MNK1; 10 μM,87 ± 2%
same,remaining activity at 1 µM,MST2; 1 μM,115 ± 4%
same,remaining activity at 10 µM,MST2; 10 μM,113 ± 2%
same,remaining activity at 1 µM,MST3; 1 μM,109 ± 8%
same,remaining activity at 10 µM,MST3; 10 μM,113 ± 15%
same,remaining activity at 1 µM,NUAK1; 1 μM,52 ± 7%
same,remaining activity at 10 µM,NUAK1; 10 μM,61 ± 16%
same,remaining activity at 1 µM,PAK5; 1 μM,93 ± 26%
same,remaining activity at 10 µM,PAK5; 10 μM,93 ± 4%
same,remaining activity at 1 µM,PAK6; 1 μM,69 ± 2%
same,remaining activity at 10 µM,PAK6; 10 μM,75 ± 4%
same,remaining activity at 1 µM,PDK1; 1 μM,92 ± 6%
same,remaining activity at 10 µM,PDK1; 10 μM,69 ± 17%
same,remaining activity at 1 µM,PKBb; 1 μM,76 ± 14%
same,remaining activity at 10 µM,PKBb; 10 μM,51 ± 13%
same,remaining activity at 1 µM,PKD1; 1 μM,89%
same,remaining activity at 10 µM,PKD1; 10 μM,79 ± 10%
same,remaining activity at 1 µM,RIPK2; 1 μM,128 ± 5%
same,remaining activity at 10 µM,RIPK2; 10 μM,120 ± 3%
same,remaining activity at 1 µM,SRPK1; 1 μM,104 ± 5%
same,remaining activity at 10 µM,SRPK1; 10 μM,73 ± 20%
same,remaining activity at 1 µM,SmMLCK; 1 μM,99 ± 3%
same,remaining activity at 10 µM,SmMLCK; 10 μM,98 ± 9%
same,remaining activity at 1 µM,TBK1; 1 μM,119 ± 10%
same,remaining activity at 10 µM,TBK1; 10 μM,94 ± 3%
same,remaining activity at 1 µM,TIE2; 1 μM,139 ± 74%
same,remaining activity at 10 µM,TIE2; 10 μM,73 ± 11%
same,remaining activity at 1 µM,TSSK1; 1 μM,99 ± 2%
same,remaining activity at 10 µM,TSSK1; 10 μM,74 ± 6%
same,remaining activity at 1 µM,ULK1; 1 μM,87 ± 10%
same,remaining activity at 10 µM,ULK1; 10 μM,89 ± 13%
same,remaining activity at 1 µM,ULK2; 1 μM,110 ± 11%
same,remaining activity at 10 µM,ULK2; 10 μM,49 ± 9%
same,remaining activity at 1 µM,p38a MAPK; 1 μM,128 ± 7%
same,remaining activity at 10 µM,p38a MAPK; 10 μM,113 ± 2%
same,remaining activity at 1 µM,p38b MAPK; 1 μM,124 ± 1%
same,remaining activity at 10 µM,p38b MAPK; 10 μM,124%
